According to ChEMBL document CHEMBL1201862, “PubChem BioAssay data set” (2004):
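In this assay, cells in 96-well plates receive the compound at five concentrations for 48 hours. Endpoints are linearly interpolated between the surrounding concentrations. GI50 is the concentration that inhibits growth by half.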 Calls of active or inactive are those of the source. Rule as the data show it: active = GI50 up to about 1.1 µM and inactive = higher.

How the values were obtained:
Assay in all cases: NCI anticancer screen, dose series, 48 h
A549 = tested on: A549
ACHN = tested on: ACHN
COLO 205 = tested on: COLO 205
EKVX = tested on: EKVX
HCC 2998 = tested on: HCC 2998
HCT-116 = tested on: HCT-116
HOP-92 = tested on: HOP-92
LOX IMVI = tested on: LOX IMVI
M14 = tested on: M14
MOLT-4 = tested on: MOLT-4
NCI-H522 = tested on: NCI-H522
OVCAR-5 = tested on: OVCAR-5
RPMI-8226 = tested on: RPMI-8226
SK-MEL-28 = tested on: SK-MEL-28
SK-OV-3 = tested on: SK-OV-3
SNB-19 = tested on: SNB-19
SR = tested on: SR
T47D = tested on: T47D
BT-549 = tested on: BT-549

Structure (SMILES) | GI50 (A549) | GI50 (ACHN) | GI50 (COLO 205) | GI50 (EKVX) | GI50 (HCC 2998) | GI50 (HCT-116) | GI50 (HOP-92) | GI50 (LOX IMVI) | GI50 (M14) | GI50 (MOLT-4) | GI50 (NCI-H522) | GI50 (OVCAR-5) | GI50 (RPMI-8226) | GI50 (SK-MEL-28) | GI50 (SK-OV-3) | GI50 (SNB-19) | GI50 (SR) | GI50 (T47D) | GI50 (BT-549)
CN1CN(c2ccccc2)C2(CCN(CCCC3(c4cccs4)OCCO3)CC2)C1=O | > 100 µM (inactive) | > 100 µM (inactive) | > 100 µM (inactive) | > 100 µM (inactive) | > 100 µM (inactive) | > 100 µM (inactive) | 28.7 µM (inactive) | > 100 µM (inactive) | 96.8 µM (inactive) | > 100 µM (inactive) | > 100 µM (inactive) | > 100 µM (inactive) | > 100 µM (inactive) | > 100 µM (inactive) | > 100 µM (inactive) | > 100 µM (inactive) | > 100 µM (inactive) | > 100 µM (inactive) | –
CCOc1cc2c(cnc3c4cc(OC)c(OC)cc4ccc23)cc1OC | > 100 µM (inactive) | > 100 µM (inactive) | > 100 µM (inactive) | > 100 µM (inactive) | > 100 µM (inactive) | > 100 µM (inactive) | – | – | > 100 µM (inactive) | > 100 µM (inactive) | > 100 µM (inactive) | > 100 µM (inactive) | > 100 µM (inactive) | > 100 µM (inactive) | > 100 µM (inactive) | > 100 µM (inactive) | – | – | –
N#CCN1CCCCCc2ccccc21 | > 100 µM (inactive) | > 100 µM (inactive) | > 100 µM (inactive) | > 100 µM (inactive) | > 100 µM (inactive) | > 100 µM (inactive) | > 100 µM (inactive) | – | > 100 µM (inactive) | > 100 µM (inactive) | – | > 100 µM (inactive) | > 100 µM (inactive) | > 100 µM (inactive) | > 100 µM (inactive) | > 100 µM (inactive) | > 100 µM (inactive) | > 100 µM (inactive) | –
CCOC(=O)[C@H]1CSC[C@@H](C(=O)OC)N1 | > 100 µM (inactive) | > 100 µM (inactive) | > 100 µM (inactive) | > 100 µM (inactive) | > 100 µM (inactive) | > 100 µM (inactive) | – | > 100 µM (inactive) | > 100 µM (inactive) | > 100 µM (inactive) | > 100 µM (inactive) | > 100 µM (inactive) | > 100 µM (inactive) | > 100 µM (inactive) | > 100 µM (inactive) | > 100 µM (inactive) | > 100 µM (inactive) | – | –
O=[N+]([O-])C(/C=C(\Cl)[N+](=O)[O-])=C(N1CCCCC1)N1CCCCC1 | 15.6 µM (inactive) | 48.9 µM (inactive) | 21.5 µM (inactive) | > 100 µM (inactive) | 44.7 µM (inactive) | 21.7 µM (inactive) | > 100 µM (inactive) | 55.7 µM (inactive) | 20.1 µM (inactive) | 30.7 µM (inactive) | 58.6 µM (inactive) | 95.5 µM (inactive) | 30.8 µM (inactive) | 70.8 µM (inactive) | > 100 µM (inactive) | > 100 µM (inactive) | 14.1 µM (inactive) | 53 µM (inactive) | –
CC(=O)Nc1ccc(/C=C2\N=C(c3ccccc3)OC2=O)cc1 | > 100 µM (inactive) | > 100 µM (inactive) | > 100 µM (inactive) | > 100 µM (inactive) | 36.1 µM (inactive) | 79.4 µM (inactive) | 62.5 µM (inactive) | 80.2 µM (inactive) | > 100 µM (inactive) | 87.5 µM (inactive) | – | > 100 µM (inactive) | 48.8 µM (inactive) | > 100 µM (inactive) | > 100 µM (inactive) | > 100 µM (inactive) | – | – | –
Clc1ccccc1CN1COc2c(cc(Cl)c3cccnc23)C1 | 3.35 µM (inactive) | 1.84 µM (inactive) | 19 µM (inactive) | – | – | 3.64 µM (inactive) | 3.18 µM (inactive) | – | 3.77 µM (inactive) | 0.28 µM (active) | 3.4 µM (inactive) | 4.28 µM (inactive) | – | 6.27 µM (inactive) | 8.75 µM (inactive) | 4.35 µM (inactive) | 0.439 µM (active) | 6.05 µM (inactive) | –
O=S1(=O)c2ccccc2NC(c2ccc3ccccc3c2)CC1c1ccccc1F (stereo unspecified) | > 100 µM (inactive) | > 100 µM (inactive) | > 100 µM (inactive) | > 100 µM (inactive) | > 100 µM (inactive) | – | – | > 100 µM (inactive) | > 100 µM (inactive) | > 100 µM (inactive) | > 100 µM (inactive) | > 100 µM (inactive) | > 100 µM (inactive) | > 100 µM (inactive) | > 100 µM (inactive) | > 100 µM (inactive) | – | – | –
CC(C)=CCNc1nc(Cl)nc2[nH]cnc12 | 28.8 µM (inactive) | 54.1 µM (inactive) | > 100 µM (inactive) | 15.7 µM (inactive) | > 100 µM (inactive) | 24.7 µM (inactive) | 35 µM (inactive) | > 100 µM (inactive) | > 100 µM (inactive) | 84.9 µM (inactive) | > 100 µM (inactive) | > 100 µM (inactive) | > 100 µM (inactive) | > 100 µM (inactive) | 16.4 µM (inactive) | 29 µM (inactive) | 37 µM (inactive) | 92 µM (inactive) | –
C[C@@H]1C(=O)O[C@@H]2C[C@@]1(C)[C@@H]1C(=O)C3(O)OC14C2(C)OC(=O)[C@@]4(O)CCC1C3C(O)C=C2CC=CC(=O)[C@@]21C (stereo partly specified) | 40.8 µM (inactive) | 53.6 µM (inactive) | 34 µM (inactive) | 40.6 µM (inactive) | 39.1 µM (inactive) | 20.7 µM (inactive) | – | – | 21.6 µM (inactive) | 20.7 µM (inactive) | – | 25.5 µM (inactive) | 19.7 µM (inactive) | 22.2 µM (inactive) | 47 µM (inactive) | 3.24 µM (inactive) | 18.2 µM (inactive) | 31.3 µM (inactive) | –
CC1CCC2C(C)(C)CC3(C)CCC1C23O (stereo unspecified) | 16.3 µM (inactive) | 16.1 µM (inactive) | 18.3 µM (inactive) | 15.1 µM (inactive) | – | 14.8 µM (inactive) | 13.3 µM (inactive) | 15.3 µM (inactive) | 16 µM (inactive) | 11.2 µM (inactive) | – | 18.9 µM (inactive) | – | 16.3 µM (inactive) | 29 µM (inactive) | 29.1 µM (inactive) | 12.3 µM (inactive) | – | 18.1 µM (inactive)
COC(=O)[C@@H]1CN(C(=O)c2ccccc2)C(=O)N1C(=O)OCc1ccccc1 | > 100 µM (inactive) | > 100 µM (inactive) | > 100 µM (inactive) | > 100 µM (inactive) | > 100 µM (inactive) | > 100 µM (inactive) | > 100 µM (inactive) | > 100 µM (inactive) | > 100 µM (inactive) | > 100 µM (inactive) | > 100 µM (inactive) | > 100 µM (inactive) | > 100 µM (inactive) | > 100 µM (inactive) | > 100 µM (inactive) | > 100 µM (inactive) | > 100 µM (inactive) | > 100 µM (inactive) | –
